For data set [1] the following is noted: Liquid; for mass density: 298.15 K, 101.33 kPa, Vibrating tube method; for Normal boiling temperature: Distillation.
Data set [2] can be described thus: refractive index (Na D-line) (dimensionless). Conditions: 298.15 K; 101.33 kPa; Liquid; Standard Abbe refractometry.

One may read the mass density as mass per unit of volume. In general, refractive index refers to a measure of how strongly the sample bends light.

± gives the expanded uncertainty stated by the source.

`CCO` [ethanol]: in data set [1], the mass density is recorded as 785.18 ± 0.15 kg/m3 and the Normal boiling temperature stood at 77.90 ± 0.41 °C. In addition, in data set [2], the refractive index worked out at 1.3594 ± 0.0005.

Turning to `O` [water], the Normal boiling temperature in data set [1] was 100.00 ± 0.41 °C. For the same compound, the refractive index in data set [2] is recorded as 1.3325 ± 0.0005.

Regarding `OCC(O)CO` [glycerol], in data set [1], the mass density was 1258.52 ± 0.19 kg/m3 and the Normal boiling temperature is 289.90 ± 0.41 °C. The refractive index in data set [2] worked out at 1.4726 ± 0.0005.

In the case of `OCCO` [1,2-ethanediol], the Normal boiling temperature in data set [1] is 197.12 ± 0.41 °C. Also, the refractive index in data set [2] turned out to be 1.4308 ± 0.0005.

For the origin of these results see the NIST ThermoML archive (doi:10.1016/j.fluid.2012.12.022).
